The nature of series [1]: Evaluation of hydrogelation ability (overnight cooling at room temperature, inversion of the bottle). In kind it is physicochemical. The conditions noted are these: same additive amounts as; after stirring at 80° C. in an open system. The source says:
Next, the solution was allowed to cool at room temperature overnight.

Series [2] can be described thus: Evaluation of solubility of N-palmitoyl-Gly-His with each additive (heating and stirring at 80° C., open system, visual inspection). It is filed as physicochemical. The conditions noted are these: 0.05% or greater acetic acid, sodium acetate or phosphoric acid, 0.1% disodium hydrogen phosphate or trisodium citrate, 0.5% citric, succinic, tartaric, lactic acid or their sodium salts, 1.0% trimellitic acid or trisodium trimellitate.
Experimental: Next, heating and stirring were performed, with a cap of the screw bottle being open (that is, an open system), in a water bath (NWB-180N, manufactured by Nissinrika K. K.) for 60 minutes at a maximum until a transparent dispersion state was confirmed at 80° C. […] Next, heating and stirring were performed, with a cap of the screw bottle being open, in a water bath (NWB-180N, manufactured by Nissinrika K. K.) for 60 minutes at 80° C.
Next, heating and stirring were performed, with a cap of the screw bottle being open, in a water bath (NWB-180N, manufactured by Nissinrika K. K.) for 60 minutes at a maximum until a transparent dispersion state was confirmed at 80° C.

Residues, ends and D or L forms follow the SMILES beside them. *: point of attachment. Palmitoyl = CCCCCCCCCCCCCCCC(=O)*

Take `CCCCCCCCCCCCCCCC(=O)NCC(=O)N[C@@H](Cc1c[nH]cn1)C(=O)O` [N-palmitoyl-Gly-His] (Palmitoyl-Gly-His-OH): in series [1], the “hydrogel formation (summary of Examples 1 to 14, in words)” value is on record as “a hydrogel could be obtained”. Further, the “dissolution in water (summary of Examples 1 to 14, in words)” value in series [2] is on record as “could be easily dissolved in water”.

The values are drawn from patent US9328137B2, “Hydrogel-forming material” (NISSAN CHEMICAL INDUSTRIES, LTD., priority 2011, dated 2016).
